row,melting point,Structure (SMILES)
1,267 to 268 °C,COc1cc2c(cc1-c1cnccn1)-c1c(-c3cccs3)c3c(n1CC2)C(=O)N(C(C)(C)C)CCCOC3
2,124 to 126 °C,COc1ccc(COc2ccc3c(c2)C(c2ccc(C(C)C)cc2)C(C)(C)O3)cc1 (stereo not drawn)
3,130 to 132 °C,CSc1nccc(Oc2ccc(NC(=O)c3cc(F)cc(OC4CCCCC4)c3)c3ccccc23)n1
4,137 to 138 °C,Cc1cc(N(C)Cc2ccc(-c3ccc(C(F)(F)F)cc3)nc2C)cc(C)c1OCC(=O)O
5,123 to 126 °C,CS(=O)(=O)n1c(C#N)nc2cc3c(cc21)OC(F)(Cl)C(F)(Cl)O3 (stereo not drawn)
6,195 to 196 °C,Cc1cc(C(=O)O)ccc1Sc1ccc2c(c1)C(C)(C)CCC2(C)C
7,135 to 136 °C,O=C1CCCN1C(=O)Oc1ccccc1[N+](=O)[O-]
8,200 to 202 °C,O=Cc1ccc2c(c1)ncn2-c1cccc(-c2cccnc2)c1
9,69 to 70 °C,CCC1Nc2cc(F)c(F)c(F)c2-n2cccc21 (stereo not drawn)
10,112 to 114 °C,CCCCCN(CCC12CC3CC(CC(C3)C1)C2)C(=O)NCCc1cccnc1
11,163 to 165 °C,CCOc1cc(-c2nc(-c3cnc(N)c(C)c3)no2)ccc1-c1ccccc1C(F)(F)F
12,87 to 89 °C,CCCCCCc1cc(-c2ccccc2)c(OCC(=O)O)c(-c2ccccc2)c1
13,235 °C,CCc1ccc(C2CCN(CCCCNC(=O)c3ccc(NC(=O)c4ccc(Cl)cc4)cc3)CC2)c(OC)c1
14,122 °C,COC(=O)C(Cc1ccc(OCCn2c(=O)sc3cc(Cc4ccc(-c5ccccc5)cc4)ccc32)cc1)C(=O)OC
15,86 to 87 °C,Cc1oc(C2CC=CCC2)nc1CC(=O)O (stereo not drawn)
16,188 °C,COc1ccc2ccccc2c1C(Nc1ccccc1C)C(=O)O (stereo not drawn)
17,138 to 139 °C,CCOC(=O)c1c(Cn2cnnc2)nc2sc(C)c(C)c2c1-c1ccc(Cl)cc1

row,melting point,Structure (SMILES)
1,215 to 217 °C,COc1cccc2c(=O)[nH]ccc12
2,126 to 128 °C,CCN(CC)CCn1nnnc1-c1ccc2oc3ncccc3c(=O)c2c1
3,78 to 79 °C,COC(=O)C(Cc1ccc(OCCN(C)c2nc3ccccc3o2)cc1)Sc1ccccc1 (stereo not drawn)
4,187 to 189 °C,Cc1ccc(S(=O)(=O)Nc2ccc(-c3ccccc3)cn2)cc1
5,190 to 194 °C,COc1ccc(N2Cc3nc(CO)nn3-c3cccnc32)cc1
6,105 to 108 °C,CC(C)n1ncc2c(N(C)N)ncnc21
7,90 to 91.5 °C,CCc1ccc(Cc2cc(Br)cc(Br)c2O)cc1
8,85 to 87 °C,CCOC(=O)OC1Oc2ccc(OS(C)(=O)=O)cc2C1(C)C (stereo not drawn)
9,79 to 81 °C,N#CC(CCC1C2CCN1CC2)(c1ccccc1)c1ccccc1 (stereo not drawn)
10,131 to 132 °C,CCCCc1nc2cccc(C(=O)OC)c2n1Cc1ccc(-n2c(C)ccc2C#N)cc1
11,103 to 104 °C,O=C(O)/C(=N/OCc1ccccc1)c1ccc(OCCOc2ccc3ccccc3c2)s1
12,126 to 127 °C,CCN(CC)CCCCC1CCN(C(=O)N2c3ccccc3C(=O)Nc3cccnc32)CC1
13,43 to 45 °C,CCCCCC(O)CCc1ccc(CCCCCCCC(=O)O)o1 (stereo not drawn)
14,85 to 87 °C,O=C1c2ccccc2C(=O)N1CCCCI
15,131 to 133 °C,CCCC1(CCC(C)=O)Cc2cc(CCC(=O)O)c(Cl)c(Cl)c2C1=O (stereo not drawn)
16,169 to 172 °C,O=[N+]([O-])c1cnn(-c2ccc(Cl)nn2)c1

row,Structure (SMILES),melting point
1,CC1CCCC(C)N1CCNC(=O)CN1CC(c2ccccc2)CC1=O (stereo not drawn),115 to 116 °C
2,COc1cc2c(cc1OC)C(c1cccc([N+](=O)[O-])c1)=NN=C(C)C2,196 to 198 °C
3,CN1CC=C(c2c[nH]c3ccc(NS(=O)(=O)c4cccc5ccccc45)cc23)CC1,244 to 245 °C
4,CC(C)CCN1C(=O)C(NC(=O)Oc2cccc(Br)c2)C(=O)N(c2ccccc2)c2ccc(Cl)cc21 (stereo not drawn),144 to 145 °C
5,CCOC(=O)C1N=C(c2ccccc2)c2cc(Cl)ccc2N(C)C1=O (stereo not drawn),180 °C

# Source: a melting point compilation (Tetko et al.; mined from patent text by program, amines drawn as free bases though some values may be those of a salt)
